This is an account of results in patent US9611278B2 (Merck Sharp & Dohme Corp., priority 2013, dated 2017).

In experiment [1] the test system is Spontaneously hypertensive rats (SHR). The experiment in a line: Acute Efficacy in Spontaneously Hypertensive Rats (SHR). The class given is in vivo, rat. Particulars: single oral dose, P.O. 1 mpk. The text has this:
Spontaneously hypertensive rats (SHR, male, Charles River) were implanted with DSI TA11PA-C40 telemetry device (Data Sciences, Inc., St. Paul, Minn.) under isoflurane or ketamine/metomidine anesthesia. The telemetry unit catheter was inserted into the descending aorta via the femoral artery and the telemetry device was implanted subcutaneously in the left flank area. Animals were allowed to recover from surgery for 14 days before the start of any studies. Blood pressure, heart rate, and activity signals from conscious, freely moving rats were recorded continuously for 30 seconds every 10 min. On the day prior to administration of compound, a single oral dose of vehicle (10% transcutol/20% Cremophor/70% water) was administered to all animals to establish baseline control data. The blood pressure lowering efficacy of compound (PO) or vehicle was evaluated following a single oral gavage. Data were collected as hourly averages, and changes in blood pressure were calculated by subtracting control baseline data on an hourly basis. Animals were maintained on normal diet with a 12 hour light-dark cycle.
Maximum peak decreases of systolic blood pressure (SBP) in SHR at a particular P.O. dose (mpk milligrams per kilogram) for the following representative compounds are provided in Table 9. Category A=SBP in SHRs <15 mmHg; Category B=SBP in SHRs 15-25 mmHg; Category C=SBP in SHRs >25 mmHg

The target in experiment [2] is T1, sGC α1/β1 heterodimer stably expressed in CHO-K1 cells (CHO-K1/sGC) (Homo sapiens, UniProt Q02108+Q02153).
T1 construct: expressed in transfected cells
T1 sequence (Q02108 1-690): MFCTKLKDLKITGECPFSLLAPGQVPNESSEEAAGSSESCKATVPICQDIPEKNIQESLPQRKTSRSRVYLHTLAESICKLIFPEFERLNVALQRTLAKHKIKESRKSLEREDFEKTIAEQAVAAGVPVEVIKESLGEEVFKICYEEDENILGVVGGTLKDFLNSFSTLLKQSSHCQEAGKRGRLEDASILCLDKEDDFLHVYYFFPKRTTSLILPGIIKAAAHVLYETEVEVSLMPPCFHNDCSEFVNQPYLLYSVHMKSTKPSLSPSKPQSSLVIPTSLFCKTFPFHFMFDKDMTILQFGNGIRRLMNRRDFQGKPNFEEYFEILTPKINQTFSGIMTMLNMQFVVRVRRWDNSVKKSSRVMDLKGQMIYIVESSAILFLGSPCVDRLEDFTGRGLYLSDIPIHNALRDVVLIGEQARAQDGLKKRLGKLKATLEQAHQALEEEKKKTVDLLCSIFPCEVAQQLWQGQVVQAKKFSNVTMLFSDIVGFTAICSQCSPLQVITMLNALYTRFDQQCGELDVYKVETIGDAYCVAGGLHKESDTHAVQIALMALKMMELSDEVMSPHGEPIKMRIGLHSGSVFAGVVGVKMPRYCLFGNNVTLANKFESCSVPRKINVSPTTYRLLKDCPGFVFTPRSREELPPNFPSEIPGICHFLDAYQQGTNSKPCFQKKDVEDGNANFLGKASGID
T1 sequence (Q02153 1-619): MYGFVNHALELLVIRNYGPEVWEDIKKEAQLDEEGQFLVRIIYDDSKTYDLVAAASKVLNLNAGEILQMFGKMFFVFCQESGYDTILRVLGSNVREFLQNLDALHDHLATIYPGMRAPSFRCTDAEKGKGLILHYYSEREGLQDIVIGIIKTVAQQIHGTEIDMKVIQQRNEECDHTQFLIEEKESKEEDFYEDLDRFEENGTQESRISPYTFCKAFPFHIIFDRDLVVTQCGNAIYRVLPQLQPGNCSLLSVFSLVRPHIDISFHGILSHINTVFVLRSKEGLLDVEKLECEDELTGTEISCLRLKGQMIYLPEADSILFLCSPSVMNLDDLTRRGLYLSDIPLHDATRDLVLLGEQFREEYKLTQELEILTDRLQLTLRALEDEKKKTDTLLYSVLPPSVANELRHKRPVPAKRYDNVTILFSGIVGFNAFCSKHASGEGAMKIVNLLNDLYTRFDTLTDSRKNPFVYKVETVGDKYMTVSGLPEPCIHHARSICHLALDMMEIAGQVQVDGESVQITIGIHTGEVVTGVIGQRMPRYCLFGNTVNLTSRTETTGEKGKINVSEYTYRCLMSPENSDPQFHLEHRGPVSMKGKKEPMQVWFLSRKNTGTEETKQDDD
The experiment in a line: Cell-based sGC Functional Assay (CASA Assay). Particulars: for Emax: CHO-K1, activation as percentage of maximum cGMP production of Compound A (set to 100%), read-out: % Act.; for EC50: inflection point of cGMP generation in CHO-K1/sGC cells, 4P fit, 1 hr at 37° C., read-out: IP. In short, it runs like this:
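CHO-K1 cells stably expressing human sGC α1/β1 were incubated with compound for 1 h at 37 °C in buffer with 0.5 mM IBMX and 2.5% DMSO, with or without 1 μM DETA-NO. Intracellular cGMP was read by HTRF and expressed as percentage of maximal activation by reference activator Compound A. Values came from a 4-parameter fit.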

Consider `[2H]C([2H])([2H])n1ncc2c(-c3nc(N)c4c(n3)NC(=O)C4(c3cn(C)nn3)C3CC3)nc(CCC(F)(F)C(F)(F)F)nc21` (single isomer, unassigned) [Example 54, 4-Amino-5-cyclopropyl-5-(1-methyl-1H-1,2,3-triazol-4-yl)-2-(1-(methyl-d3)-6-(3,3,4,4,4-pentafluorobutyl)-1H-pyrazolo[3,4-d]pyrimidin-4-yl)-5,7-dihydro-6H-pyrrolo[2,3-d]pyrimidin-6-one], for which, in experiment [1], the “Category: maximum peak decrease of systolic blood pressure (SBP) in SHR” value (shortened to “Category: maximum peak decrease”) is “B (Category B=SBP in SHRs 15-25 mmHg)”. Moreover, in experiment [2], the Emax came to 93% and the EC50 was determined as 229 nM.
As for `Cn1cc(C2(C3CC3)C(=O)Nc3nc(-c4nc(CCC(F)(F)C(F)(F)F)nc5c4cnn5C)nc(N)c32)nn1` (single isomer, unassigned) [Example 55, 4-Amino-5-cyclopropyl-5-(1-methyl-1H-1,2,3-triazol-4-yl)-2-(1-methyl-6-(3,3,4,4,4-pentafluorobutyl)-1H-pyrazolo[3,4-d]pyrimidin-4-yl)-5,7-dihydro-6H-pyrrolo[2,3-d]pyrimidin-6-one], the “Category: maximum peak decrease” value in experiment [1] is given as “B (Category B=SBP in SHRs 15-25 mmHg)”. In experiment [2], the Emax was 118% and the EC50 was 251 nM.
As to `CC(C)n1cc(C2(C)C(=O)Nc3nc(-c4nc(CCC(F)(F)C(F)(F)F)nc5c4cnn5C)nc(N)c32)nn1` (single isomer, unassigned) [Example 56, 4-Amino-5-(1-isopropyl-1H-1,2,3-triazol-4-yl)-5-methyl-2-(1-methyl-6-(3,3,4,4,4-pentafluorobutyl)-1H-pyrazolo[3,4-d]pyrimidin-4-yl)-5,7-dihydro-6H-pyrrolo[2,3-d]pyrimidin-6-one], the “Category: maximum peak decrease” value in experiment [1] was “C (Category C=SBP in SHRs >25 mmHg)”. Further, in experiment [2], the Emax was 126% and the EC50 stood at 1020 nM.
Turning to `CCn1cc(C2(CC)C(=O)Nc3nc(-c4nc(CCC(F)(F)C(F)(F)F)nc5c4cnn5C)nc(N)c32)nn1` (single isomer, unassigned) [Example 66, 4-Amino-5-ethyl-5-(1-ethyl-1H-1,2,3-triazol-4-yl)-2-(1-methyl-6-(3,3,4,4,4-pentafluorobutyl)-1H-pyrazolo[3,4-d]pyrimidin-4-yl)-5,7-dihydro-6H-pyrrolo[2,3-d]pyrimidin-6-one], the “Category: maximum peak decrease” value in experiment [1] is “B (Category B=SBP in SHRs 15-25 mmHg)”. Also, in experiment [2], the Emax was 108% and the EC50 worked out at 327 nM.
For `CCn1cc(C2(C)C(=O)Nc3nc(-c4nc(CCC(F)(F)C(F)(F)F)nc5c4cnn5C)nc(N)c32)nn1` (single isomer, unassigned) [Example 69, 4-Amino-5-(1-ethyl-1H-1,2,3-triazol-4-yl)-5-methyl-2-(1-methyl-6-(3,3,4,4,4-pentafluorobutyl)-1H-pyrazolo[3,4-d]pyrimidin-4-yl)-5,7-dihydro-6H-pyrrolo[2,3-d]pyrimidin-6-one], in that order: “C (Category C=SBP in SHRs >25 mmHg)”, 105% and 259 nM.
`Cn1ncc2c(-c3nc(N)c4c(n3)NC(=O)C4(C)n3cnnn3)nc(CCC(F)(F)C(F)(F)F)nc21` (single isomer, unassigned) [Example 84, 4-Amino-5-methyl-2-(1-methyl-6-(3,3,4,4,4-pentafluorobutyl)-1H-pyrazolo[3,4-d]pyrimidin-4-yl)-5-(1H-tetrazol-1-yl)-5,7-dihydro-6H-pyrrolo[2,3-d]pyrimidin-6-one]: the “Category: maximum peak decrease” value in experiment [1] is on record as “A (Category A=SBP in SHRs <15 mmHg)”. Moreover, in experiment [2], the Emax is 111% and the EC50 stood at 365 nM.
`[2H]C([2H])([2H])n1ncc2c(-c3nc(N)c4c(n3)NC(=O)C4(c3nnc(C)o3)C3CC3)nc(CCC(F)(F)C(F)(F)F)nc21` (centres unmarked) [Example 40, 4-Amino-5-cyclopropyl-5-(5-methyl-1,3,4-oxadiazol-2-yl)-2-(1-(methyl-d3)-6-(3,3,4,4,4-pentafluorobutyl)-1H-pyrazolo[3,4-d]pyrimidin-4-yl)-5,7-dihydro-6H-pyrrolo[2,3-d]pyrimidin-6-one]: the “Category: maximum peak decrease” value in experiment [1] was “C (Category C=SBP in SHRs >25 mmHg)”.
Take `[2H]C([2H])([2H])n1ncc2c(-c3nc(N)c4c(n3)NC(=O)C4(c3nc(CC(C)(C)C(=O)OCC)cs3)C3CC3)nc(CCC(F)(F)C(F)(F)F)nc21` (centres unmarked) [Example 82, Ethyl 3-(2-(4-amino-5-cyclopropyl-2-(1-(methyl-d3)-6-(3,3,4,4,4-pentafluorobutyl)-1H-pyrazolo[3,4-d]pyrimidin-4-yl)-6-oxo-6,7-dihydro-5H-pyrrolo[2,3-d]pyrimidin-5-yl)thiazol-4-yl)-2,2-dimethylpropanoate]: in experiment [2], the Emax worked out at 78% and the EC50 was 509 nM.
On to `[2H]C([2H])([2H])n1ncc2c(-c3nc(N)c4c(n3)NC(=O)C4(c3nc(CC(C)(C)C(=O)O)cs3)C3CC3)nc(CCC(F)(F)C(F)(F)F)nc21` (centres unmarked) [Example 83, 3-(2-(4-Amino-5-cyclopropyl-2-(1-(methyl-d3)-6-(3,3,4,4,4-pentafluorobutyl)-1H-pyrazolo[3,4-d]pyrimidin-4-yl)-6-oxo-6,7-dihydro-5H-pyrrolo[2,3-d]pyrimidin-5-yl)thiazol-4-yl)-2,2-dimethylpropanoic acid], for which, in experiment [2], the Emax was 80% and the EC50 was determined as 797 nM.
`Cn1ccc2c(-c3nc(N)c4c(n3)NC(=O)C4(C)c3ccc(F)cn3)nc(CCC(F)(F)C(F)(F)F)nc21` (centres unmarked) [Example 85, 4-Amino-5-(5-fluoropyridin-2-yl)-5,7′-dimethyl-2′-(3,3,4,4,4-pentafluorobutyl)-5,7-dihydro-6H,7′H-[2,4′-bipyrrolo[2,3-d]pyrimidin]-6-one]: in experiment [2], the Emax amounted to 108% and the EC50 came to 112 nM.
For `Cc1nnc(C2(C)C(=O)Nc3nc(-c4nc(CCC(F)(F)C(F)(F)F)nc5c4ccn5C)nc(N)c32)o1` (centres unmarked) [Example 87, 4-Amino-5,7′-dimethyl-5-(5-methyl-1,3,4-oxadiazol-2-yl)-2′-(3,3,4,4,4-pentafluorobutyl)-5,7-dihydro-6H,7′H-[2,4′-bipyrrolo[2,3-d]pyrimidin]-6-one], in experiment [2], the Emax was 86% and the EC50 was 378 nM.
`Cn1ccc2c(-c3nc(N)c4c(n3)NC(=O)C4(c3nnc(C4CC4)o3)C3CC3)nc(CCC(F)(F)C(F)(F)F)nc21` (centres unmarked) [Example 88, 4-Amino-5-cyclopropyl-5-(5-cyclopropyl-1,3,4-oxadiazol-2-yl)-7′-methyl-2′-(3,3,4,4,4-pentafluorobutyl)-5,7-dihydro-6H,7′H-[2,4′-bipyrrolo[2,3-d]pyrimidin]-6-one]: in experiment [2], the Emax came out at 109% and the EC50 was determined as 715 nM.
